# “And” between values parts separate entries of the source, which are not always exact repeats. Equal values may be shown once. Read-outs that look alike come from different tables or passages of the source.
# Experiments:
# [1] = General appearance of patches with non-volatile coadjuvants (visual and tactile inspection); type: physicochemical; details: selegiline patches in DT 87-2353
# [2] = Loss of selegiline during manufacture (after drying), HPLC; type: physicochemical; details: up to 15%
# Method: Lots with DT 87-2353 as adhesive, selegiline and increasing amounts of squalene (SQ) and triethylcitrate (TEC) were manufactured as described in “Description of the manufacturing process” above and the amount of selegiline present after drying was measured.
# Selegiline content was analysed by HPLC using a suitable technique
# [3] = Shear adhesion / holding power (PSTC-7) of plain adhesives and transdermal devices; type: physicochemical
# Method: Holding power (shear adhesion): The ability of a tape to resist the static forces applied in the same plane as the backing. Usually expressed in a time required for a given weight per unit area to cause a given amount of tape to come loose from a vertical panel.
# Throughout this specification, including the claims, the adhesive properties of shear adhesion and peel adhesion are measured employing the test methods adopted by the PSTC (Pressure Sensitive Tape Council) for Peel Adhesion (PSTC-1 Peel Adhesion of Single Coated Pressure Sensitive Tapes at 180° Angle) and Shear Adhesion (PSTC-7 Holding Power of Pressure Sensitive Tapes). The unit for peel adhesion is newtons/inch, and the unit for holding power (shear adhesion) is minutes. The test of holding power is performed under a load of 4 lbs/in^2 (28 kPa) and at 72° F. (22° C.).
# Adhesive properties were measured as described above. The plain adhesive values given are those of the dry adhesive polymer composition without added components.
# [4] = test system: shaved skin; assay: Evaluation of dermal irritation in rabbits (Example 3); type: in vivo, rabbits (New Zealand Albino); set-up: key to Score for Skin Erythema 1 h / Score for Skin Erythema 2 h / Score for Skin Erythema 4 h / Score for Skin Erythema 6 h / Score for Skin Erythema 8 h / Score for Skin Erythema 24 h: 0: No redness (erythema).; 1: Barely perceptible redness.; 2: Well defined redness.; 3: Severe Erythema (beet redness) to slight eschar formation (injuries in depth)
# Method: Dermal irritation was tested using transdermal delivery devices manufactured as described in “Description of the manufacturing process” above with acrylic adhesives with different functionality and 15% of selegiline, all of them with shear value of more than 1.5 hours and less than 15 hours for the plain adhesive and without crosslinker agents (see Table 3). Each formulation was tested on 6 rabbits, with evaluations at 1, 2, 4, 6, 8 and 24 hrs. The degree of adhesion and glue residue was also evaluated with skin reactions on an open-label 1-day-study. Rabbits belonging to the New Zealand Albino strain were used as animal model. According protocol, and after 14 days of acclimatization, the fur of back of 6 male rabbits was thoroughly shaved. Twenty four hours later one patch of each formulation of 10.6 cm^2 was glued in each rabbit to the shaved skin, according to a randomized schedule.
# Pure selegiline (25 μl) was used as control covered by Transpore tape (from 3M).
# The irritation observed was classified according to the following scoring system: • Scale used for scoring erythema: • 0: No redness (erythema). • 1: Barely perceptible redness. • 2: Well defined redness. • 3: Severe Erythema (beet redness) to slight eschar formation (injuries in depth).
# Reactions were scored as if they were covering the entire skin area treated (maximum score).
# The Dermal Irritation Index (DII) was calculated as the average of the individual data at each evaluation time.
# The dermal irritation indexes obtained were interpreted following ISO/WD 10993-10: […]
# [5] = 1% selegiline in the coadjuvant, seven days at 40° C.
# [6] = 1% selegiline in the coadjuvant, seven days at 40° C., control pure selegiline
smiles,measurement,setting,value
"CCOC(=O)CC(O)(CC(=O)OCC)C(=O)OCC [TEC, triethylcitrate]",Impurity rrt: 1.56,[5],0.42%
same,Impurity rrt: 2.09,[5],0.98%
same,Selegiline base (chromatographic purity),[6],98.58%
same,Amount up to which the coadjuvant is suitable,[1],up to 15%
same,"Effect of coadjuvant on selegiline loss during drying, in words",[2],diminishes the amount of active drug loss during drying in a concentration dependent manner
CC(C)=CCC/C(C)=C/CC/C(C)=C/CC/C=C(\C)CC/C=C(\C)CCC=C(C)C [squalene],Impurity rrt: 2.04,[5],0.07%
same,Selegiline base (chromatographic purity),[6],99.89%
same,Amount up to which the coadjuvant is suitable,[1],up to 15%
same,"Effect of coadjuvant on selegiline loss during drying, in words",[2],diminishes the amount of active drug loss during drying in a concentration dependent manner
"CCN(C)C(=O)Oc1cccc([C@H](C)N(C)C)c1 [Rivastigmine, rivastigmine]",Effect of the drug on cohesiveness of the adhesives (measured by the shear test),[3],reduces the cohesiveness in all the adhesives
"C#CCN(C)[C@H](C)Cc1ccccc1 [pure selegiline, selegiline]",Impurity (any secondary peak),,≦0.05%
same,Selegiline base (chromatographic purity),,99.98%
same,Score for Skin Erythema 1 h,"[4]; individual rabbits 1-6, 10.6 cm^2 patch, 1 h",0
same,Score for Skin Erythema 2 h,"[4]; individual rabbits 1-6, 2 h",0 (5×) and 1
same,Score for Skin Erythema 4 h,"[4]; individual rabbits 1-6, 4 h",0 (5×) and 1
same,Score for Skin Erythema 6 h,"[4]; individual rabbits 1-6, 6 h",0 (3×) and 1 (3×)
same,Score for Skin Erythema 8 h,"[4]; individual rabbits 1-6, 8 h",1
same,Score for Skin Erythema 24 h,"[4]; individual rabbits 1-6, 24 h",1 (5×) and 0
same,DII (Dermal Irritation Index),"[4]; individual rabbits 1-6, average over evaluation times",0.3 (4×) and 0.5 and 0.8
same,Erythema Score 1 h,"[4]; mean of 6 rabbits, 1 h",0.0
same,Erythema Score 2 h,"[4]; mean of 6 rabbits, 2 h",0.2
same,Erythema Score 4 h,"[4]; mean of 6 rabbits, 4 h",0.2
same,Erythema Score 6 h,"[4]; mean of 6 rabbits, 6 h",0.5
same,Erythema Score 8 h,"[4]; mean of 6 rabbits, 8 h",1.0
same,Erythema Score 24 h,"[4]; mean of 6 rabbits, 24 h",0.8
same,"DII (Dermal Irritation Index), Erythema Score line","[4]; overall, 6 rabbits, all times",0.4
same,Effect of the drug on cohesiveness of the adhesives (measured by the shear test),[3],reduces the cohesiveness in all the adhesives

# — US20100087768A1, “TRANSDERMAL DRUG DELIVERY SYSTEM FOR LIQUID ACTIVE INGREDIENT” (priority 2008, published 2010)
